Structures can show the parent of a compound that is named as a salt. Where two headings read alike, the source gives them in different places.
Key:
Type in all cases: biochemical
[1] = molecular target: T1, human JAK1 (a.a. 837-1142) (Homo sapiens, UniProt P23458); assay: In vitro JAK kinase assay (HTRF, phosphorylation of a biotinylated peptide), JAK1; conditions: read-out: JAK1 IC50
T1 construct: human JAK1 (a.a. 837-1142); His tag (N); made in house; host or cells: insect cells (baculovirus)
T1 sequence (P23458 849-1154): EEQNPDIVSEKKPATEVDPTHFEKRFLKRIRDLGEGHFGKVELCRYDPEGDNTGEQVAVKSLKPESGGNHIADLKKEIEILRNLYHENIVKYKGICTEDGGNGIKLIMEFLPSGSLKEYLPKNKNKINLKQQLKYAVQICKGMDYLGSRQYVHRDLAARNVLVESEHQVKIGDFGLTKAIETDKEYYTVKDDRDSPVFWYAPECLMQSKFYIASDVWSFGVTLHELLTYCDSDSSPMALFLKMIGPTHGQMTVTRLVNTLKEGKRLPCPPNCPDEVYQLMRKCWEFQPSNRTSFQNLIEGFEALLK
Outline: (§1)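 Phosphorylation of a biotinylated peptide by the JAK kinase domain, detected by HTRF with Eu-Py20 and SA-APC. ATP was 90 μM for JAK1, 30 μM for JAK2 and 3 μM for JAK3. Reactions ran 1 h at room temperature and were stopped with EDTA, followed by 40 min antibody binding.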

[2] = molecular target: T2, human JAK2 (a.a. 828-1132) (Homo sapiens, UniProt O60674); assay: In vitro JAK kinase assay (HTRF, phosphorylation of a biotinylated peptide), JAK2
T2 construct: JAK2 (a.a. 828-1132); His tag (N); made in house; host or cells: insect cells (baculovirus)
T2 sequence (O60674 828-1132): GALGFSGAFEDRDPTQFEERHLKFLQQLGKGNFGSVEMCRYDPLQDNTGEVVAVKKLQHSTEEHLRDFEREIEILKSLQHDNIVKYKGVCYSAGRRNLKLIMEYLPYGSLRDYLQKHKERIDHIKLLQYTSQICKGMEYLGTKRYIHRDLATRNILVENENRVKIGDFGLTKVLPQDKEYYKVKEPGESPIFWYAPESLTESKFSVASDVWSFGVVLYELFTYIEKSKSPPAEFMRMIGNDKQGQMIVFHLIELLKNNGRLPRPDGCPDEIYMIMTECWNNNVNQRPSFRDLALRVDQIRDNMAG
Outline: as §1

[3] = molecular target: T3, human JAK3 (a.a. 781-1124) (Homo sapiens, UniProt P52333); assay: In vitro JAK kinase assay (HTRF, phosphorylation of a biotinylated peptide), JAK3
T3 construct: JAK3 (a.a. 781-1124); His tag (N); made in house; host or cells: insect cells (baculovirus)
T3 sequence (P52333 781-1124): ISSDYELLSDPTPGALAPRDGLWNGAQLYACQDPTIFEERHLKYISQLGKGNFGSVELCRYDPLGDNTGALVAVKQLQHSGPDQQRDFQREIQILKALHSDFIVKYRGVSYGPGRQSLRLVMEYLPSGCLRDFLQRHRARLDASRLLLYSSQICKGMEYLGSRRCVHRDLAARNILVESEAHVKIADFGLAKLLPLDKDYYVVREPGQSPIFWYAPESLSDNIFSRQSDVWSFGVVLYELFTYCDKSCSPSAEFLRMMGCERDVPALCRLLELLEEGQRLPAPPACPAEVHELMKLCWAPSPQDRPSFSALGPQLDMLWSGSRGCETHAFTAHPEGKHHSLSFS
Outline: as §1

TYK2 = TYK2 (Homo sapiens, UniProt P29597); assay: TYK2 kinase inhibition (Table A1)
Sequence of TYK2 (P29597 whole entry): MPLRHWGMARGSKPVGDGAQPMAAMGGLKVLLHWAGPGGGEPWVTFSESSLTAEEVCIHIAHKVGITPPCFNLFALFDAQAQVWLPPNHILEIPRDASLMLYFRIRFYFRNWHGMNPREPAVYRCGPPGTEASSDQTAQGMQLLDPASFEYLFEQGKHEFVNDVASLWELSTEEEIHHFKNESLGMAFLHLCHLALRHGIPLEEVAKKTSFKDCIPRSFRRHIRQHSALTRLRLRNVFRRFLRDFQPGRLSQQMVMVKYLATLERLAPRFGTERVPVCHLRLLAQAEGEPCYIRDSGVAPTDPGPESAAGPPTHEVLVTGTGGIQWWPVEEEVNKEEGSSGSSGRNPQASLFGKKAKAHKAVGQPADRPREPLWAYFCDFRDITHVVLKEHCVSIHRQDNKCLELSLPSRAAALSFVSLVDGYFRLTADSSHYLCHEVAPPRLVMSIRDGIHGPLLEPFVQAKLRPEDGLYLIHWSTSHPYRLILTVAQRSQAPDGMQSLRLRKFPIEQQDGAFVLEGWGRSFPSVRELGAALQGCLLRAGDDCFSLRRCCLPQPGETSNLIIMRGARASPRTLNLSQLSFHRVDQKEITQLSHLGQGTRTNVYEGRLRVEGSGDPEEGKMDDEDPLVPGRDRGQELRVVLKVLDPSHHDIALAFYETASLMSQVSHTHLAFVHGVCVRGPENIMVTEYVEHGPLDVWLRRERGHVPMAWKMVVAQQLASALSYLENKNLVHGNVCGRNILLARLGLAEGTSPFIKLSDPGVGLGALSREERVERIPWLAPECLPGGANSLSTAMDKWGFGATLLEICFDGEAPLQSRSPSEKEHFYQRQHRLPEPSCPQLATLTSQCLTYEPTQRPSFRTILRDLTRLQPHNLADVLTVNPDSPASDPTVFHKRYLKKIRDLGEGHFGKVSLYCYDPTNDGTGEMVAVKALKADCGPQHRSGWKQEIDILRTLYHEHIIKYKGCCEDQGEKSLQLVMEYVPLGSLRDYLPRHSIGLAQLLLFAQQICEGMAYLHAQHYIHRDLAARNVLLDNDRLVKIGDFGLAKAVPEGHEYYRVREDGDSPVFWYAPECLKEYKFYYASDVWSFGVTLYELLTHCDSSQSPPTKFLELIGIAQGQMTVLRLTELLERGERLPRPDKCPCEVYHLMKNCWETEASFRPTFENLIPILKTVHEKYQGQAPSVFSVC

[4] = molecular target: T4, Recombinant Human Anaplastic Lymphoma Kinase (Homo sapiens, UniProt Q9UM73); assay: ALK HTRF kinase assay
T4 construct: purchased Invitrogen, Carlsbad, Calif
T4 sequence (Q9UM73 19-1620): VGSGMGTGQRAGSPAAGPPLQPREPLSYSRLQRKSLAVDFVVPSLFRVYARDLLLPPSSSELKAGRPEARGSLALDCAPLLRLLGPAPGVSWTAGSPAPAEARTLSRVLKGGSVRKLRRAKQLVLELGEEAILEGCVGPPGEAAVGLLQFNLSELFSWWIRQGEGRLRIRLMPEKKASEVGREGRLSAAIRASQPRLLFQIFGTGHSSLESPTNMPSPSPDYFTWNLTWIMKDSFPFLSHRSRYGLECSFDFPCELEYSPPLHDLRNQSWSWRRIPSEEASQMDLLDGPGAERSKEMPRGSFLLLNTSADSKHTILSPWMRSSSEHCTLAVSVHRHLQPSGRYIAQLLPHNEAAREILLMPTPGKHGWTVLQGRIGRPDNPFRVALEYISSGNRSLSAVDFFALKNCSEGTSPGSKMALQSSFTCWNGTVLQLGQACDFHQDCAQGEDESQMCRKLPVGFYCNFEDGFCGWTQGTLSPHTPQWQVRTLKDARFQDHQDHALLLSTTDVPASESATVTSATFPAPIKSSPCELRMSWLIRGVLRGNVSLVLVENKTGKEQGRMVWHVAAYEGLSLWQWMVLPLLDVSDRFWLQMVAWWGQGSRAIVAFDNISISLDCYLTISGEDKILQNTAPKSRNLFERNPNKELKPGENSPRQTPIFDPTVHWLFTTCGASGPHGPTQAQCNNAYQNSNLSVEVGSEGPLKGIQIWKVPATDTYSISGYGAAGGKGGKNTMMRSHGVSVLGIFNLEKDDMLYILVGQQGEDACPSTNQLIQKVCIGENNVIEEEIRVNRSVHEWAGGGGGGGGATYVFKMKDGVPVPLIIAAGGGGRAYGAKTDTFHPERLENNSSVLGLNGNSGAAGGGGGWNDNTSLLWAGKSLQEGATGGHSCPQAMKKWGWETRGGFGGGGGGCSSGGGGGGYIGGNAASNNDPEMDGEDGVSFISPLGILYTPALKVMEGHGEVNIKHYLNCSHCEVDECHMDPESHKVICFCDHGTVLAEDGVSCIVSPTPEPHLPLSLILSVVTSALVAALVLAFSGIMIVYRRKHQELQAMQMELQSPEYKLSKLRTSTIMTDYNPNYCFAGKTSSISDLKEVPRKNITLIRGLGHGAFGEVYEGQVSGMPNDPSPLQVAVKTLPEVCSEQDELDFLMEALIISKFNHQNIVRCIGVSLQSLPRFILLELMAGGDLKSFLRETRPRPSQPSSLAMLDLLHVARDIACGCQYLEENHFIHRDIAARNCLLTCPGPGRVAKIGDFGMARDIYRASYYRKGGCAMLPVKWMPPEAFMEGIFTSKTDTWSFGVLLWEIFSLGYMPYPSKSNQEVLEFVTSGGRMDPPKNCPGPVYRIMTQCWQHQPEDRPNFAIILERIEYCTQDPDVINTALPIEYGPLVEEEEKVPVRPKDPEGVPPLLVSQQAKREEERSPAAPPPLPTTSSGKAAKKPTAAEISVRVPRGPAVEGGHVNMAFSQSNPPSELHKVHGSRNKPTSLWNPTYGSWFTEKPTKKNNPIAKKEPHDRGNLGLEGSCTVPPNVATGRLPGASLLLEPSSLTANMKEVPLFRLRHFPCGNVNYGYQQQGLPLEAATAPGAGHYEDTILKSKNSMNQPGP
Outline: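 Biotinylated peptide substrate, recombinant human ALK; detection via europium-chelate antibody to phosphotyrosine paired with streptavidin-APC. Potency expressed as IC50 from four-parameter curve fitting.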

[5] = compound at a concentration of 500 nM or 1 mM (not specified), cells shown as percentage
[6] = Table B1, cells without percent sign
[7] = method AA1 (90 μM ATP) or AA2 (1000 μM ATP), not stated per value
[8] = method AA1 (30 μM ATP) or AA2 (1000 μM ATP), not stated per value
[9] = method AA1 (3 μM ATP) or AA2 (1000 μM ATP), not stated per value
[10] = compound at 500 nM or 1 mM, 90 μM ATP

Structure (SMILES)	IC50 ([1]; Table B1) [nM]	IC50 ([2]; Table B1) [nM]	IC50 ([3]; Table B1) [nM]	IC50 (TYK2; Table B1) [nM]	IC50 [1, 7] [nM]	IC50 [2, 8] [nM]	IC50 [3, 9] [nM]	IC50 (TYK2) [nM]	ALK % of inhibition at a concentration of 500 nM or 1 mM [4, 10] [%]	also measured
N#Cc1c(N2CCC(CC(=O)Nc3ccc4cc3CCc3cncc(c3)Nc3ncc(Cl)c(n3)N4)CC2)cccc1C(F)(F)F [Example A235, N-[6-Chloro-2,4,8,18,22-pentaazatetracyclo[14.3.1.1(3,7).1(9,13)]docosa-1(20),3(22),4,6,9(21),10,12,16,18-nonaen-12-yl]-2-{1-[2-cyano-3-(trifluoromethyl)phenyl]piperidin-4-yl}acetamide tris(trifluoroacetate)]	–	–	–	–	12	326	> 400	> 400	4.6	–
O=C(CC1CCN(C(=O)c2ccon2)CC1)Nc1ccc2cc1CCc1cncc(c1)Nc1ncc(Cl)c(n1)N2 [Example A135, N-[6-Chloro-2,4,8,18,22-pentaazatetracyclo[14.3.1.1(3,7).1(9,13)]docosa-1(20),3(22),4,6,9(21),10,12,16,18-nonaen-12-yl]-2-[1-(isoxazol-3-ylcarbonyl)piperidin-4-yl]acetamide bis(trifluoroacetate)]	–	–	–	–	0.4	2.3	79	0.9	30	–
COc1ccccc1NC(=O)N1CCC(CC(=O)Nc2ccc3cc2CCc2cncc(c2)Nc2ncc(Cl)c(n2)N3)CC1 [Example A152, 4-(2-{[6-Chloro-2,4,8,18,22-pentaazatetracyclo[14.3.1.1(3,7).1(9,13)]docosa-1(20),3(22),4,6,9(21),10,12,16,18-nonaen-12-yl]amino}-2-oxoethyl)-N-(2-methoxyphenyl)piperidine-1-carboxamide bis(trifluoroacetate)]	–	–	–	–	0.4	2.4	> 100	2.4	37	–
N#Cc1c(Cl)cncc1N1CCC(CC(=O)Nc2ccc3cc2CCc2cncc(c2)Nc2ncc(Cl)c(n2)N3)CC1 [Example A240, 2-[1-(5-Chloro-4-cyanopyridin-3-yl)piperidin-4-yl]-N-[6-chloro-2,4,8,18,22-pentaazatetracyclo[14.3.1.1(3,7).1(9,13)]docosa-1(20),3(22),4,6,9(21),10,12,16,18-nonaen-12-yl]acetamide tris(trifluoroacetate)]	–	–	–	–	1.5	80	> 400	244	29	–
CC(C)(C)NC(=O)N1CCC(CC(=O)Nc2ccc3cc2CCc2cccc(c2)Nc2ncc(Cl)c(n2)N3)CC1 [Example A85, N-(tert-Butyl)-4-(2-{[6-chloro-2,4,8,22-tetraazatetracyclo[14.3.1.1(3,7).1(9,13)]docosa-1(20),3(22),4,6,9(21),10,12,16,18-nonaen-12-yl]amino}-2-oxoethyl)piperidine-1-carboxamide trifluoroacetate]	–	–	–	–	49	13	147	33	19	–
Cc1nc(C)c(S(=O)(=O)N2CCC(CC(=O)Nc3ccc4cc3CCc3cncc(c3)Nc3ncc(Cl)c(n3)N4)CC2)s1 [Example A232, N-[6-Chloro-2,4,8,18,22-pentaazatetracyclo[14.3.1.1(3,7).1(9,13)]docosa-1(20),3(22),4,6,9(21),10,12,16,18-nonaen-12-yl]-2-{1-[(2,4-dimethyl-1,3-thiazol-5-yl)sulfonyl]piperidin-4-yl}acetamide bis(trifluoroacetate)]	–	–	–	–	12	94	> 400	326	43	–
CC(=O)N1CCN(c2cc(-c3cc4cc(c3)Nc3ncc(Cl)c(n3)Nc3cccc(c3)OCC4)ccn2)CC1 [Example D35, 19-[2-(4-Acetylpiperazin-1-yl)pyridin-4-yl]-6-chloro-14-oxa-2,4,8,23-tetraazatetracyclo[15.3.1.1(3,7).1(9,13)]tricosa-1(21),3(23),4,6,9(22),10,12,17,19-nonaene bis(trifluoroacetate)]	–	–	–	–	–	–	–	–	–	IC50 ([1]; Table D1): 0.7 nM; IC50 ([2]; Table D1): 0.4 nM; IC50 ([3]; Table D1): 7.7 nM; IC50 (TYK2; Table D1): 4.3 nM; IC50 ([4]; Table D1, 90 μM ATP): 150 nM
CN(C)S(=O)(=O)N1CCC(CC(=O)Nc2ccc3cc2CCc2cncc(c2)Nc2ncc(Cl)c(n2)N3)CC1 [Example A96, N-[6-Chloro-2,4,8,18,22-pentaazatetracyclo[14.3.1.1(3,7).1(9,13)]docosa-1(20),3(22),4,6,9(21),10,12,16,18-nonaen-12-yl]-2-{1-[(dimethylamino)sulfonyl]piperidin-4-yl}acetamide bis(trifluoroacetate)]	–	–	–	–	4.5	6.6	80	11	26	–

Second part, led by results:

IC50 ([1]; Table B1) [nM]	IC50 ([2]; Table B1) [nM]	IC50 ([3]; Table B1) [nM]	IC50 (TYK2; Table B1) [nM]	IC50 [1, 7] [nM]	IC50 [2, 8] [nM]	IC50 [3, 9] [nM]	IC50 (TYK2) [nM]	ALK % of inhibition at a concentration of 500 nM or 1 mM [4, 10] [%]	Structure (SMILES)	also measured
28	28	6.3	5.5	–	–	–	–	–	O=C(Nc1nc(C(=O)O)cs1)Nc1ccc2cc1CCc1cccc(c1)Nc1ncc(Cl)c(n1)N2 [Example B250, 2-[({[6-Chloro-2,4,8,22-tetraazatetracyclo[14.3.1.1(3,7).1(9,13)]docosa-1(20),3(22),4,6,9(21),10,12,16,18-nonaen-12-yl]amino}carbonyl)amino]-1,3-thiazole-4-carboxylic acid trifluoroacetate]	ALK % of inhibition at a concentration of 500 nM or 1 mM [4, 5]: 66%
0.87	0.78	2.9	2.5	–	–	–	–	–	O=C(Nc1ccc2cc1CCc1cccc(c1)Nc1ncc(Cl)c(n1)N2)c1cccnc1 [Example B30, N-[6-Chloro-2,4,8,22-tetraazatetracyclo[14.3.1.1(3,7).1(9,13)]docosa-1(20), 3(22),4,6,9(21),10,12,16,18-nonaen-12-yl]nicotinamide bis(trifluoroacetate)]	IC50 [4, 6]: 260 nM
19	1.4	3	34	–	–	–	–	–	CCC(C)C(=O)Nc1ccc2cc1CCc1cccc(c1)Nc1ncc(Cl)c(n1)N2 (centres unmarked) [Example B61, N-[6-Chloro-2,4,8,22-tetraazatetracyclo[14.3.1.1(3,7).1(9,13)]docosa-1(20), 3(22),4,6,9(21),10,12,16,18-nonaen-12-yl]-2-methylbutanamide trifluoroacetate]	IC50 [4, 6]: 680 nM
11	27	198	96	–	–	–	–	–	O=C(Nc1ccc(OC(F)(F)F)cc1)Nc1ccc2cc1CCc1cccc(c1)Nc1ncc(Cl)c(n1)N2 [Example B132, N-[6-Chloro-2,4,8,22-tetraazatetracyclo[14.3.1.1(3,7).1(9,13)]docosa-1(20), 3(22),4,6,9(21),10,12,16,18-nonaen-12-yl]-N′-[4-(trifluoromethoxy)phenyl]urea trifluoroacetate]	ALK % of inhibition at a concentration of 500 nM or 1 mM [4, 5]: 5%
–	–	–	–	–	–	–	> 1000	–	O=C1NCc2cccc(c2)Nc2nc(ncc2Cl)Nc2cccc1c2 [Example C5, 6-Chloro-2,4,8,15,23-pentaazatetracyclo[15.3.1.1(3,7).1(9,13)]tricosa-1(21),3(23),4,6,9(22),10,12,17,19-nonaen-16-one hydrochloride]	IC50 [1]: > 1000 nM; IC50 [2]: > 1000 nM; IC50 [3]: > 1000 nM; IC50 [4]: > 1000 nM
20	279	> 10000	607	–	–	–	–	–	O=C(Nc1ccc2cc1CCc1cncc(c1)Nc1ncc(Cl)c(n1)N2)N[C@H]1CCN(C(=O)c2cc(C3CC3)on2)C1 [Example B270, N-[6-Chloro-2,4,8,18,22-pentaazatetracyclo[14.3.1.1(3,7).1(9,13)]docosa-1(20),3(22),4,6,9(21),10,12,16,18-nonaen-12-yl]-N′-{(3S)-1-[(5-cyclopropylisoxazol-3-yl)carbonyl]pyrrolidin-3-yl}urea bis(trifluoroacetate)]	ALK % of inhibition at a concentration of 500 nM or 1 mM [4, 5]: 10%
8.1	17	274	50	–	–	–	–	–	O=C(Nc1ccc2cc1CCc1cccc(c1)Nc1ncc(Cl)c(n1)N2)NC1CCCNC1 (centres unmarked) [Example B238, N-[6-Chloro-2,4,8,22-tetraazatetracyclo[14.3.1.1(3,7).1(9,13)]docosa-1(20),3(22),4,6,9(21),10,12,16,18-nonaen-12-yl]-N′-piperidin-3-ylurea bis(trifluoroacetate)]	ALK % of inhibition at a concentration of 500 nM or 1 mM [4, 5]: 15%
0.24	0.48	3.3	1.7	–	–	–	–	–	O=C(Nc1ccc2cc1CCc1cccc(c1)Nc1ncc(Cl)c(n1)N2)c1ccccc1 [Example B29, N-[6-Chloro-2,4,8,22-tetraazatetracyclo[14.3.1.1(3,7).1(9,13)]docosa-1(20), 3(22),4,6,9(21),10,12,16,18-nonaen-12-yl]benzamide trifluoroacetate]	IC50 [4, 6]: 96 nM
